Measured values taken from patent EP4745134A1 (Jiangsu Yahong Meditech Co., Ltd., priority 2023, dated 2025).

Assays:
HCT116-WT cells = assay: Inhibitory activity against cell proliferation (CellTiter Glo, 6 days), HCT116-WT; type: cell-based; conditions: 144 h, HCT116-WT cells, 6 days, CellTiter Glo; read-out: HCT116-WT IC50
How it was run: (§1)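 Viability IC50s come from CellTiter Glo luminescence after 6 days' exposure to compound (8 concentrations, 4-fold steps, top 10000 nM), relative to DMSO wells. Cells were MTAP-KO or WT HCT116, seeded at 250 per well in McCoy's 5A with 10% FBS and incubated overnight before dosing.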

PRMT5-MTA = PRMT5-MTA (Homo sapiens, UniProt O14744); assay: Enzymatic inhibitory activity against PRMT5-MTA (AlphaScreen); type: biochemical; conditions: read-out: IC50
Chain of PRMT5-MTA (O14744 whole entry): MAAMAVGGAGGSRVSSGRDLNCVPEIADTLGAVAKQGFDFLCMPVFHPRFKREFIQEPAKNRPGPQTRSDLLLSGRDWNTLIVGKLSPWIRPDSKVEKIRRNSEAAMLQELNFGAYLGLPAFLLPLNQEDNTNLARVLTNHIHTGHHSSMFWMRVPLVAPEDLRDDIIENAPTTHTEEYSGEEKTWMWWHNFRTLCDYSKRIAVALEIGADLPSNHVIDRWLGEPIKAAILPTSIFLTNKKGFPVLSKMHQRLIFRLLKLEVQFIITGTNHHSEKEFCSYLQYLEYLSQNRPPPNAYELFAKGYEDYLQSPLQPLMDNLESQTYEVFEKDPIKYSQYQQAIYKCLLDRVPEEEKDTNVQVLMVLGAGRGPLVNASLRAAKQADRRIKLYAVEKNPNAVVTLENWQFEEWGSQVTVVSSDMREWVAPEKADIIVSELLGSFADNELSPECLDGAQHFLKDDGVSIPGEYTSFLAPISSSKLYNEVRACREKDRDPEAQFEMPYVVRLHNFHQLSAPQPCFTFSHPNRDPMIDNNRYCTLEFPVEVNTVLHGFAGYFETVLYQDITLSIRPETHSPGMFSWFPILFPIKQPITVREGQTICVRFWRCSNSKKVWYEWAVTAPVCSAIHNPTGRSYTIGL
Chain of PRMT5-MTA (Q9BQA1 whole entry partner): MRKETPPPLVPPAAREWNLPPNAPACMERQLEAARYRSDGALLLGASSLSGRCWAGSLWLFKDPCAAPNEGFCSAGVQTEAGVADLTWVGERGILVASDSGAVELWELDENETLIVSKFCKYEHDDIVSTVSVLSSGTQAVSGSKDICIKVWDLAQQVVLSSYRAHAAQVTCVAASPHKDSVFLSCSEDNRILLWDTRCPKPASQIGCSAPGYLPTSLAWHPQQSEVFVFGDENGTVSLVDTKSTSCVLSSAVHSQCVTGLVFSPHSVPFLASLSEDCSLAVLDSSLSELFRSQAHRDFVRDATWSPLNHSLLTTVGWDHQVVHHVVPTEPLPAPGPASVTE
How it was run: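 PRMT5/[…] (1 nM) was preincubated for 30 min at room temperature with 1 µM […] and 2.5 µM SAM, then exposed to compound (10-point, 3-fold from 1000 nM) for 15 min at 23 °C. Histone H4 substrate (5 nM) was added and reacted for 45 min at 23 °C. Symmetric dimethyl-R3 H4 was detected by AlphaScreen and IC50 calculated.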

HCT116 MTAP KO cells = assay: Inhibitory activity against cell proliferation (CellTiter Glo, 6 days), HCT116 MTAP KO; type: cell-based; conditions: for IC50: Homo sapiens, HCT-116, 144 h, HCT116 MTAP KO cells, 6 days, CellTiter Glo, read-out: HCT116 MTAP KO IC50; for Selectivity HCT 116-WT/ HCT116 MTAP KO: ratio of IC50 HCT116-WT / HCT116 MTAP KO
How it was run: as §1

| SMILES | IC50 (HCT116-WT cells) | IC50 (PRMT5-MTA) | IC50 (HCT116 MTAP KO cells) | Selectivity HCT 116-WT/ HCT116 MTAP KO (HCT116 MTAP KO cells) |
| --- | --- | --- | --- | --- |
| Cc1cc2cc(C(=O)N(Cc3ccc(C(F)(F)F)cn3)N(C)c3ccccc3)ccc2nc1N [Example 75, 2-amino-N',3-dimethyl-N'-phenyl-N-((5-(trifluoromethyl)pyridin-2-yl)methyl)quinoline-6-carbohydrazide] | 901 nM | 3.1 nM | 80 nM | 11.26 |
| COc1ccnc(N(C)N(Cc2ccc(C(F)(F)F)cn2)C(=O)c2ccc3nc(N)c(C)cc3c2)n1 [Example 76, 2-amino-N'-(4-methoxypyrimidin-2-yl)-N',3-dimethyl-N-((5-(trifluoromethyl)pyridin-2-yl)methyl)quinoline-6-carbohydrazide] | 2150 nM | 1.6 nM | 98 nM | 21.94 |
| CN(c1ncccn1)N(Cc1ccc(C(F)(F)F)cn1)C(=O)c1ccc2nc(N)c3ccncc3c2c1 [Example 78, 5-amino-N'-methyl-N'-(pyrimidin-2-yl)-N-((5-(trifluoromethyl)pyridin-2-yl)methyl)benzo[c][2,6]naphthyridine-9-carbohydrazide] | 169 nM | 2 nM | 14 nM | 12.07 |
| Cc1cc2cc(C(=O)N(Cc3ccc(C(F)(F)F)cn3)N(C)c3ncc4ncccc4n3)ccc2nc1N [Example 80, 2-amino-N',3-dimethyl-N'-(pyrido[3,2-d]pyrimidin-2-yl)-N-((5-(trifluoromethyl)pyridin-2-yl)methyl)quinoline-6-carbohydrazide] | 1870 nM | 1.9 nM | 132 nM | 14.18 |
| Cc1cc2cc(C(=O)N(Cc3ccc(Br)cn3)N(c3ncccn3)C3CC3)ccc2nc1N [Example 82, 2-amino-N-((5-bromopyridin-2-yl)methyl)-N'-cyclopropyl-3-methyl-N'-(pyrimidin-2-yl)quinoline-6-carbohydrazide] | 282 nM | 2.2 nM | 16 nM | 17.63 |
| Cc1cc2cc(C(=O)N(Cc3ccc(C(F)(F)F)cn3)N(c3ncccn3)C3CCC3)ccc2nc1N [Example 83, 2-amino-N'-cyclobutyl-3-methyl-N'-(pyrimidin-2-yl)-N-((5-(trifluoromethyl)pyridin-2-yl)methyl)quinoline-6-carbohydrazide] | 1930 nM | 4.5 nM | 134 nM | 14.39 |
| Cc1cc2cc(C(=O)N(Cc3ccc(Br)cc3F)N(C)c3ncccn3)ccc2nc1N [Example 84, 2-amino-N-(4-bromo-2-fluorobenzyl)-N', 3-dimethyl-N'-(pyrimidin-2-yl)quinoline-6-carbohydrazide] | 1630 nM | 3.4 nM | 58 nM | 28.17 |
| Cc1cc2cc(C(=O)N(Cc3ccc(C(F)(F)F)cn3)N(C)c3cccc(C(F)(F)F)n3)ccc2nc1N [Example 88, 2-amino-N',3-dimethyl-N'-(6-(trifluoromethyl)pyridin-2-yl)-N-((5-(trifluoromethyl)pyridin-2-yl)methyl)quinoline-6-carbohydrazide] | 2030 nM | 2.5 nM | 176 nM | 11.56 |
| Cc1cc2cc(C(=O)N(Cc3ccc(C(F)(F)F)cc3F)N(C)c3ncccn3)ccc2nc1N [Example 90, 2-amino-N-(2-fluoro-4-(trifluoromethyl)benzyl)-N',3-dimethyl-N'-(pyrimidin-2-yl) quinoline-6-carbohydrazide] | 2170 nM | 4.5 nM | 98 nM | 22.13 |
| Cc1cc2cc(C(=O)N(Cc3ccc(C(F)(F)F)cn3)N(C)c3nccc4cccnc34)ccc2nc1N [Example 91, 2-amino-N',3-dimethyl-N'-(1,7-naphthyridin-8-yl)-N-((5-(trifluoromethyl)pyridin-2-yl)methyl)quinoline-6-carbohydrazide] | 1700 nM | 2.9 nM | 43 nM | 39.42 |
| Cc1cc2cc(C(=O)N(Cc3ccc(C(F)(F)F)cn3)N(C)c3ncc4ccsc4n3)ccc2nc1N [Example 92, 2-amino-N',3-dimethyl-N'-(thieno[2,3-d]pyrimidin-2-yl)-N-((5-(trifluoromethyl)pyridin-2-yl)methyl)quinoline-6-carbohydrazide] | 569 nM | 2.1 nM | 19 nM | 29.95 |
| Cc1cc2cc(C(=O)N(Cc3ccc(C(F)(F)F)cn3)N(C)c3ncccc3OC(F)F)ccc2nc1N [Example 93, 2-amino-N'-(3-(difluoromethoxy)pyridin-2-yl)-N',3-dimethyl-N-((5-(trifluoromethyl)pyridin-2-yl)methyl)quinoline-6-carbohydrazide] | 612 nM | 1.4 nM | 20 nM | 30.60 |
| Cc1cc2cc(C(=O)N(Cc3ccc(C#N)cn3)N(C)c3ncccn3)ccc2nc1N [Example 94, 2-amino-N-((5-cyanopyridin-2-yl)methyl)-N',3-dimethyl-N'-(pyrimidin-2-yl) quinoline-6-carbohydrazide] | 3070 nM | 2.3 nM | 130 nM | 23.60 |
| Cc1cc2cc(C(=O)N(Cc3ccc(C(F)(F)F)cn3)N(C)c3ncc(F)cn3)ccc2nc1N [Example 95, 2-amino-N'-(5-fluoropyrimidin-2-yl)-N',3-dimethyl-N-((5-(trifluoromethyl)pyridin-2-yl)methyl)quinoline-6-carbohydrazide] | 2460 nM | 2.1 nM | 70 nM | 35.14 |
| CCN(C(=O)c1cc2c(cc1F)nc(N)c1cnn(C)c12)N(C)c1ccc(F)cn1 [Example 97, 4-amino-N-ethyl-7-fluoro-N'-(5-fluoropyridin-2-yl)-N',1-dimethyl-1H-pyrazolo[4,3-c]quinoline-8-carbohydrazide] | > 10000 nM | 5.1 nM | 246 nM | – |
| Cc1cc2cc(C(=O)N(Cc3ccc(C(F)(F)F)cn3)N(C)c3ncc(C(F)(F)F)cc3F)ccc2nc1N [Example 102, 2-amino-N'-(3-fluoro-5-(trifluoromethyl)pyridin-2-yl)-N',3-dimethyl-N-((5-(trifluoromethyl)pyridin-2-yl)methyl)quinoline-6-carbohydrazide] | 3550 nM | 1.7 nM | 348 nM | 10.19 |
| Cc1cc2cc(C(=O)N(Cc3cc4ccccc4cn3)N(C)c3ncccn3)ccc2nc1N [Example 104, 2-amino-N-(isoquinolin-3-ylmethyl)-N',3-dimethyl-N'-(pyrimidin-2-yl)quinoline-6-carbohydrazide] | 1540 nM | 3.4 nM | 67 nM | 22.94 |
| Cc1cc2cc(C(=O)N(Cc3ccc(C(F)(F)F)cn3)N(C)c3nccc4nccnc34)ccc2nc1N [Example 107, 2-amino-N',3-dimethyl-N'-(pyrido[3,4-b]pyrazin-5-yl)-N-((5-(trifluoromethyl)pyridin-2-yl)methyl)quinoline-6-carbohydrazide] | 1620 nM | 2.5 nM | 46 nM | 35.15 |
| Cc1cc2cc(C(=O)N(Cc3ccc(C(F)(F)F)cn3)N(C)c3nccc4ncccc34)ccc2nc1N [Example 108, 2-amino-N',3-dimethyl-N'-(1,6-naphthyridin-5-yl)-N-((5-(trifluoromethyl)pyridin-2-yl)methyl)quinoline-6-carbohydrazide] | 3420 nM | 1.9 nM | 141 nM | 24.26 |
| Cc1cc2cc(C(=O)N(Cc3ccc(C(F)(F)F)cn3)N(C)c3ncc4ccccc4n3)ccc2nc1N [Example 109, 2-amino-N',3-dimethyl-N'-(quinazolin-2-yl)-N-((5-(trifluoromethyl)pyridin-2-yl)methyl)quinoline-6-carbohydrazide] | 1070 nM | 1.2 nM | 74 nM | 14.41 |
| Cc1cc2cc(C(=O)N(Cc3ccc(C(F)(F)F)cn3)N(C)c3nccc(C#N)n3)ccc2nc1N [Example 110, 2-amino-N'-(4-cyanopyrimidin-2-yl)-N',3-dimethyl-N-((5-(trifluoromethyl)pyridin-2-yl)methyl)quinoline-6-carbohydrazide] | 2700 nM | 2.5 nM | 172 nM | 15.71 |
| Cc1cc2cc(C(=O)N(Cc3ccc(C(F)(F)F)cn3)N(C)c3ccccc3F)ccc2nc1N [Example 111, 2-amino-N'-(2-fluorophenyl)-N',3-dimethyl-N-((5-(trifluoromethyl)pyridin-2-yl)methyl)quinoline-6-carbohydrazide] | 1040 nM | 1.7 nM | 38 nM | 27.47 |
| Cc1cc2nc(N)c3cnn(C)c3c2cc1C(=O)N(C)N1CCc2cccnc21 [Example 112, 4-amino-N-(2,3-dihydro-1H-pyrrolo[2,3-b]pyridin-1-yl)-N,1,7-trimethyl-1H-pyrazolo[4,3-c]quinoline-8-carboxamide] | > 10000 nM | 1.9 nM | 360 nM | – |
